Laboratory results as given in US8802597B2, “Herbicidal pyrimidines” (E I du Pont de Nemours and Company, priority 2003, dated 2014).
Where two headings read alike, the source gives them in different places.

What was measured:
Type in all cases: in vivo
[1] = test system: corn (Zea mays); test: Test B pre/postemergence; settings: Zea mays
Outline: (§1)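 Formulation: non-phytotoxic solvent blend with surfactant. Timing: preemergence on seeds, postemergence at 1- to 4-leaf (2–18 cm). Assessment: visual, 0–100 against controls, after 13–15 days' greenhouse growth.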

[2] = test system: pigweed (Amaranthus retroflexus); test: Test B pre/postemergence; settings: Amaranthus retroflexus; for pest or weed control at 125 g/ha: 125 g ai/ha; for pest or weed control at 500 g/ha: 500 g ai/ha
Outline: as §1

[3] = test system: lambsquarters (Chenopodium album); test: Test B pre/postemergence; settings: Chenopodium album; for pest or weed control at 125 g/ha: 125 g ai/ha; for pest or weed control at 500 g/ha: 500 g ai/ha
Outline: as §1

[4] = test system: wheat (Triticum aestivum); test: Test B pre/postemergence; settings: Triticum aestivum; for plant injury at 125 g/ha: 125 g ai/ha; for plant injury at 500 g/ha: 500 g ai/ha
Outline: as §1

[5] = test system: morningglory (Ipomoea coccinea); test: Test B pre/postemergence; settings: Ipomoea; for pest or weed control at 125 g/ha: 125 g ai/ha; for pest or weed control at 500 g/ha: 500 g ai/ha
Outline: as §1

[6] = test system: cocklebur (Xanthium strumarium); test: Test B pre/postemergence; settings: Xanthium strumarium; for pest or weed control at 125 g/ha: 125 g ai/ha; for pest or weed control at 500 g/ha: 500 g ai/ha
Outline: as §1

[7] = test system: crabgrass (Digitaria sanguinalis); test: Test B pre/postemergence; settings: Digitaria sanguinalis; for pest or weed control at 125 g/ha: 125 g ai/ha; for pest or weed control at 500 g/ha: 500 g ai/ha
Outline: as §1

[8] = test system: Surinam grass (Brachiaria decumbens); test: Test B pre/postemergence; settings: Urochloa decumbens; for pest or weed control at 125 g/ha: 125 g ai/ha; for pest or weed control at 500 g/ha: 500 g ai/ha
Outline: as §1

[9] = test system: barnyardgrass (Echinochloa crus-galli); test: Test B pre/postemergence; settings: Echinochloa crus-galli; for pest or weed control at 125 g/ha: 125 g ai/ha; for pest or weed control at 500 g/ha: 500 g ai/ha
Outline: as §1

[10] = test system: giant foxtail (Setaria faberii); test: Test B pre/postemergence; settings: Setaria faberi; for pest or weed control at 125 g/ha: 125 g ai/ha; for pest or weed control at 500 g/ha: 500 g ai/ha
Outline: as §1

[11] = test system: velvetleaf (Abutilon theophrasti); test: Test B pre/postemergence; settings: Abutilon theophrasti; for pest or weed control at 125 g/ha: 125 g ai/ha; for pest or weed control at 500 g/ha: 500 g ai/ha
Outline: as §1

[12] = test system: blackgrass (Alopecurus myosuroides); test: Test B postemergence; settings: Alopecurus myosuroides, post-emergence
Outline: as §1

[13] = test system: wild oat (Avena fatua); test: Test B postemergence; settings: Avena fatua, post-emergence
Outline: as §1

[14] = test system: umbrella sedge (Cyperus difformis); test: Test B flooded paddy test; settings: Cyperus difformis, Flood, 1000 g ai/ha; scale 0 to 100; read-out: Plant response rating, Sedge, Umbrella
Outline: (§2)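 Plants were grown to the 2-leaf stage before treatment, then kept in a greenhouse for 13 to 15 days. Injury was rated visually against untreated controls on a 0 to 100 scale, where 0 is no effect and 100 is complete control.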

[15] = test system: rice (Oryza sativa); test: Test B flooded paddy test; settings: Oryza sativa, Flood, 1000 g ai/ha; scale 0 to 100; read-out: Plant response rating, Rice
Outline: as §2

[16] = test system: duck salad (Heteranthera limosa); test: Test B flooded paddy test; settings: Heteranthera limosa, Flood, 1000 g ai/ha; scale 0 to 100; read-out: Plant response rating, Ducksalad
Outline: as §2

[17] = test system: barnyardgrass (Echinochloa crus-galli); test: Test B flooded paddy test; settings: Echinochloa crus-galli, Flood, 1000 g ai/ha; scale 0 (no effect) to 100 (complete control); read-out: Plant response rating, Barnyardgrass
Outline: as §2

`Nc1nc(C2CC2)nc(C(=O)OCc2ccccc2)c1Br` [Compound 22, phenylmethyl 6-amino-5-bromo-2-cyclopropyl-4-pyrimidinecarboxylate] gave a plant injury at 125 g/ha ([1]; post-emergence, Postemergence, 125 g ai/ha, scale 0 to 100 (0 no effect, 100 complete control), read-out: Corn plant response rating) of 20%, a Corn plant response rating (crop injury, 0 = no effect, 100 = complete kill) at 500 g/ha ([1]; post-emergence, Postemergence, 500 g ai/ha, scale 0 to 100) of 80% and a Corn plant response rating (crop injury, 0 = no effect, 100 = complete kill) at 125 g/ha ([1]; pre-emergence, Preemergence, 125 g ai/ha, scale 0 to 100 (0 no effect, 100 complete control)) of 10%. The pest or weed control at 125 g/ha ([2]; post-emergence, Postemergence, scale 0 to 100 (0 no effect, 100 complete control), read-out: Pigweed plant response rating) was 100%, the pest or weed control at 500 g/ha ([2]; post-emergence, Postemergence, scale 0 to 100, read-out: Plant response rating, Pigweed) was 100% and the pest or weed control at 125 g/ha ([2]; pre-emergence, Preemergence, scale 0 to 100 (0 no effect, 100 complete control), read-out: Plant response rating, Pigweed) was 60%. The pest or weed control at 500 g/ha ([2]; pre-emergence, Preemergence, scale 0 to 100 (0 no effect, 100 complete control), read-out: Pigweed plant response rating) was 80%, the pest or weed control at 125 g/ha ([3]; post-emergence, Postemergence, scale 0 to 100 (0 no effect, 100 complete control), read-out: Lambsquarters plant response rating) was 100% and the pest or weed control at 500 g/ha ([3]; post-emergence, Postemergence, scale 0 to 100, read-out: Plant response rating, Lambsquarters) was 100%. For the same molecule, the pest or weed control at 125 g/ha ([3]; pre-emergence, Preemergence, scale 0 to 100 (0 no effect, 100 complete control), read-out: Plant response rating, Lambsquarters) was 70%, the pest or weed control at 500 g/ha ([3]; pre-emergence, Preemergence, scale 0 to 100 (0 no effect, 100 complete control), read-out: Lambsquarters plant response rating) was 100% and the plant injury at 125 g/ha ([4]; post-emergence, Postemergence, scale 0 to 100 (0 no effect, 100 complete control), read-out: Wheat plant response rating) was 0%. It also gave a plant injury at 500 g/ha ([4]; post-emergence, Postemergence, scale 0 to 100, read-out: Plant response rating, Wheat) of 70%, a plant injury at 125 g/ha ([4]; pre-emergence, Preemergence, scale 0 to 100 (0 no effect, 100 complete control), read-out: Plant response rating, Wheat) of 10% and a plant injury at 500 g/ha ([4]; pre-emergence, Preemergence, scale 0 to 100 (0 no effect, 100 complete control), read-out: Wheat plant response rating) of 50%. For the same molecule, the pest or weed control at 125 g/ha ([5]; post-emergence, Postemergence, scale 0 to 100 (0 no effect, 100 complete control), read-out: Morningglory plant response rating) was 90%, the pest or weed control at 500 g/ha ([5]; post-emergence, Postemergence, scale 0 to 100, read-out: Plant response rating, Morningglory) was 100% and the pest or weed control at 125 g/ha ([5]; pre-emergence, Preemergence, scale 0 to 100 (0 no effect, 100 complete control), read-out: Plant response rating, Morningglory) was 100%. It also gave a pest or weed control at 500 g/ha ([5]; pre-emergence, Preemergence, scale 0 to 100 (0 no effect, 100 complete control), read-out: Morningglory plant response rating) of 100%, a pest or weed control at 125 g/ha ([6]; post-emergence, Postemergence, scale 0 to 100 (0 no effect, 100 complete control), read-out: Cocklebur plant response rating) of 100% and a pest or weed control at 500 g/ha ([6]; post-emergence, Postemergence, scale 0 to 100, read-out: Plant response rating, Cocklebur) of 100%. It also gave a pest or weed control at 125 g/ha ([6]; pre-emergence, Preemergence, scale 0 to 100 (0 no effect, 100 complete control), read-out: Plant response rating, Cocklebur) of 50%, a pest or weed control at 500 g/ha ([6]; pre-emergence, Preemergence, scale 0 to 100 (0 no effect, 100 complete control), read-out: Cocklebur plant response rating) of 80% and a pest or weed control at 125 g/ha ([7]; post-emergence, Postemergence, scale 0 to 100 (0 no effect, 100 complete control), read-out: Crabgrass plant response rating) of 50%. The pest or weed control at 500 g/ha ([7]; post-emergence, Postemergence, scale 0 to 100, read-out: Plant response rating, Crabgrass) was 90%, the pest or weed control at 125 g/ha ([7]; pre-emergence, Preemergence, scale 0 to 100 (0 no effect, 100 complete control), read-out: Plant response rating, Crabgrass) was 20% and the pest or weed control at 500 g/ha ([7]; pre-emergence, Preemergence, scale 0 to 100 (0 no effect, 100 complete control), read-out: Crabgrass plant response rating) was 100%. For the same molecule, the pest or weed control at 125 g/ha ([8]; post-emergence, Postemergence, scale 0 to 100 (0 no effect, 100 complete control), read-out: Surinam Grass plant response rating) was 80%, the pest or weed control at 500 g/ha ([8]; post-emergence, Postemergence, scale 0 to 100, read-out: Plant response rating, Surinam Grass) was 90% and the pest or weed control at 125 g/ha ([8]; pre-emergence, Preemergence, scale 0 to 100 (0 no effect, 100 complete control), read-out: Plant response rating, Surinam Grass) was 0%. For the same molecule, the pest or weed control at 500 g/ha ([8]; pre-emergence, Preemergence, scale 0 to 100 (0 no effect, 100 complete control), read-out: Surinam Grass plant response rating) was 20%, the pest or weed control at 125 g/ha ([9]; post-emergence, Postemergence, scale 0 to 100 (0 no effect, 100 complete control), read-out: Barnyardgrass plant response rating) was 70% and the pest or weed control at 500 g/ha ([9]; post-emergence, Postemergence, scale 0 to 100, read-out: Plant response rating, Barnyardgrass) was 90%. The pest or weed control at 125 g/ha ([9]; pre-emergence, Preemergence, scale 0 to 100 (0 no effect, 100 complete control), read-out: Plant response rating, Barnyardgrass) was 0%, the pest or weed control at 500 g/ha ([9]; pre-emergence, Preemergence, scale 0 to 100 (0 no effect, 100 complete control), read-out: Barnyardgrass plant response rating) was 20% and the pest or weed control at 125 g/ha ([10]; post-emergence, Postemergence, scale 0 to 100 (0 no effect, 100 complete control), read-out: Foxtail, Giant plant response rating) was 70%. The pest or weed control at 500 g/ha ([10]; post-emergence, Postemergence, scale 0 to 100, read-out: Plant response rating, Foxtail, Giant) was 80%, the pest or weed control at 125 g/ha ([10]; pre-emergence, Preemergence, scale 0 to 100 (0 no effect, 100 complete control), read-out: Plant response rating, Foxtail, Giant) was 0% and the pest or weed control at 500 g/ha ([10]; pre-emergence, Preemergence, scale 0 to 100 (0 no effect, 100 complete control), read-out: Foxtail, Giant plant response rating) was 20%. For the same molecule, the pest or weed control at 125 g/ha ([11]; post-emergence, Postemergence, scale 0 to 100 (0 no effect, 100 complete control), read-out: Velvetleaf plant response rating) was 100%, the pest or weed control at 500 g/ha ([11]; post-emergence, Postemergence, scale 0 to 100, read-out: Plant response rating, Velvetleaf) was 100% and the pest or weed control at 125 g/ha ([11]; pre-emergence, Preemergence, scale 0 to 100 (0 no effect, 100 complete control), read-out: Plant response rating, Velvetleaf) was 30%. For the same molecule, the pest or weed control at 500 g/ha ([11]; pre-emergence, Preemergence, scale 0 to 100 (0 no effect, 100 complete control), read-out: Velvetleaf plant response rating) was 100%, the pest or weed control at 125 g/ha ([12]; 125 g ai/ha, scale 0 to 100 (0 no effect, 100 complete control), read-out: Blackgrass plant response rating) was 60% and the pest or weed control at 500 g/ha ([12]; 500 g ai/ha, scale 0 to 100, read-out: Plant response rating, Blackgrass) was 80%. For the same molecule, the pest or weed control at 125 g/ha ([13]; 125 g ai/ha, scale 0 to 100 (0 no effect, 100 complete control), read-out: Oat, Wild plant response rating) was 10%, the pest or weed control at 500 g/ha ([13]; 500 g ai/ha, scale 0 to 100, read-out: Plant response rating, Oat, Wild) was 60% and the pest or weed control at 1000 g/ha [14] was 50%. The plant injury at 1000 g/ha [15] was 60%, the pest or weed control at 1000 g/ha [16] was 90% and the pest or weed control at 1000 g/ha [17] was 80%.
